Experiment [1] deals with T1, EGFR L858R/T790M (H1975-clone #36, homozygous) (Homo sapiens, UniProt P00533, L858R/T790M).
T1 construct: designed to specifically target WT EGFR but preserve the L858R/T790M copy; host or cells: H1975-clone #36
The experiment in a line: EGFR degradation HTRF assay, H1975-clone #36 cells. Type of experiment: cell-based. As to conditions: H1975 #36, 16h treatment; for Dmax: NCI-H1975, maximum percentage of degradation. The protocol:
H1975-clone #36(L858R/T790M). H1975 cell heterozygously (from ATCC) contains alleles of WT and L858R/T790M EGFR. H1975-clone #36(L858R/T790M) was generated by gene knockout, in which the EGFR targeting sgRNA was designed to specifically target WT EGFR but preserve the L858R/T790M copy. Followed by the gene knockout, the edited H1975 cells were seeded in 96 well plates at the concentration of 1 cell/well, cultured for about 2 weeks to allow single clones formation. The formed clones were screened by DNA sequencing for the desired edition. H1975-clone #36 was confirmed as a homozygous L858R/T790M EGFR clone.
BaF3 WT(wild type), BaF3-LTC(L858R/T790M/C797S) and BaF3-DTC(Del19/T790M/C797S) cells are treated with compounds diluted in 0.2% DMSO cell culture medium and incubate for 16h, 37° C., 5% CO2, H1975-#36, H1975-#28, H1975-#23 and HCC827 cells are treated with compounds diluted in 0.2% DMSO cell culture medium on day 2, incubate for 16h, 37° C., 5% CO2.the final concentriation of compounds in all assay is start with 10 uM, 5-fold dilution, total 8 doses were included.
After 16h treatment, add HTRF lysis buffer to each well; seal the plate and incubate 1 hour at room temperature on a plate shaker; Once the cells are lysed, 16 μL of cell lysate are transferred to a PE 384-well HTRF detection plate; 4 μL of pre-mixed HTRF antibodies are added to each well; Cover the plate with a plate sealer, spin 1000 rpm for 1 min, Incubate overnight at room temperature; Read on BMG PheraStar with HTRF protocol (337 nm-665 nm-620 nm).
The inhibition (degradation) percentage of the compound was calculated by the following equation: Inhibition percentage of Compound=100-100×(Signal-low control)/(High control-low control), wherein signal=each test compound group
High control=Cell group with added DMSO and without compound, indicating microplate readings without EGFR degradation;
Dmax is the maximum percentage of inhibition (degradation).
The IC50 (DC50) value of a compound can be obtained by fitting the following equation
Y=Bottom+(TOP−Bottom)/(1+((IC50/X)^hillslope))
Wherein, X and Y are known values, and IC50, Hillslope, Top and Bottom are the parameters obtained by fitting with software. Y is the inhibition percentage (calculated from the equation), X is the concentration of the compound; IC50 is the concentration of the compound when the 50% inhibition is reached. The smaller the IC50 value is, the stronger the inhibitory ability of the compound is. Vice versa, the higher the IC50 value is, the weaker the inhibitory ability of the compound is; Hillslope represents the slope of the fitted curve, generally around 1*; Bottom represents the minimum value of the curve obtained by data fitting, which is generally 0%±20%; Top represents the maximum value of the curve obtained by data fitting, which is generally 100%±20%. The experimental data were fitted by calculating and analyzing with Dotmatics data analysis software.
On the technique in general: In TR-FRET formats the signal depends on donor and acceptor labels being close together.

The next experiment has as its target T2, EGFR (HCC827 cells) (Homo sapiens, UniProt P00533, DEL746-750).
T2 construct: endogenous in cells; host or cells: HCC827
Nature of the experiment: EGFR degradation HTRF assay, HCC827 cells. As to conditions: HCC827, 16h treatment; for Dmax: maximum percentage of degradation. Type of experiment: cell-based. The procedure, abridged:
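BaF3 (WT, Del19/T790M/C797S) and HCC827 cells exposed 16 h at 37 °C, 5% CO2 to compounds in 0.2% DMSO medium, 8 doses from 10 uM top, 5-fold steps. Lysates read by HTRF (665/620 nm); degradation % vs DMSO control, DC50 from four-parameter fit, Dmax as maximal degradation.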

Where a name gives a salt, the structure may show the parent alone.

T2 sequence (P00533 with tags, fused parts or gaps DEL746-750): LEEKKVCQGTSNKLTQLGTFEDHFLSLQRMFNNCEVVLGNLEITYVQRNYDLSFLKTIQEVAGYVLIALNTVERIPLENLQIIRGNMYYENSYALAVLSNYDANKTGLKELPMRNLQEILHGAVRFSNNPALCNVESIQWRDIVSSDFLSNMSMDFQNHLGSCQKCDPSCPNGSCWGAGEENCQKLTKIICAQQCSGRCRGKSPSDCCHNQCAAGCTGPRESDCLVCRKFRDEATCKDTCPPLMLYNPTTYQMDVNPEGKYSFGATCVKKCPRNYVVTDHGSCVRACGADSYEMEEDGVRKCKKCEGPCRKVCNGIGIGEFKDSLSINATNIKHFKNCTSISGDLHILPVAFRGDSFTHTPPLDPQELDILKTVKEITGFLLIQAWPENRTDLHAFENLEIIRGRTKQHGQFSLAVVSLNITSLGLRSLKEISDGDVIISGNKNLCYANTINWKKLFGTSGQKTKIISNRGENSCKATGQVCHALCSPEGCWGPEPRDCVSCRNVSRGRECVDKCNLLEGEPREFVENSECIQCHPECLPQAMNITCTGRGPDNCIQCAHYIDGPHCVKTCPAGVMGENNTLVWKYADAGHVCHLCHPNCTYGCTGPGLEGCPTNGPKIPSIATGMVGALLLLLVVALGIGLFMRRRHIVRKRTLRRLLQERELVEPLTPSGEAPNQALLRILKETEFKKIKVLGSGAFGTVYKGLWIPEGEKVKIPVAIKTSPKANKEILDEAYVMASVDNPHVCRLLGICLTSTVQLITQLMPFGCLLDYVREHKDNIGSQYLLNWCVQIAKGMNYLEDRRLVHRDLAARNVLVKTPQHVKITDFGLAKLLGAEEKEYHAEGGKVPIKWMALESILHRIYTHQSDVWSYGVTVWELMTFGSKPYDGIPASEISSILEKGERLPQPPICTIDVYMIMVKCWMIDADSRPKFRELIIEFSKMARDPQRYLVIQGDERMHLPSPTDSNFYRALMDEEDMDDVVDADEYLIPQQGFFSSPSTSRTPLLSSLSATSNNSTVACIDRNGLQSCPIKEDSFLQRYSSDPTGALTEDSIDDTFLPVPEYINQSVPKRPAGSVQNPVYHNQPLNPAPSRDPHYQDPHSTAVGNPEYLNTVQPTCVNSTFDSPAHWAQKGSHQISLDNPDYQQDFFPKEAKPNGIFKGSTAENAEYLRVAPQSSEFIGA
T1 sequence (P00533 25-1210 T790M/L858R): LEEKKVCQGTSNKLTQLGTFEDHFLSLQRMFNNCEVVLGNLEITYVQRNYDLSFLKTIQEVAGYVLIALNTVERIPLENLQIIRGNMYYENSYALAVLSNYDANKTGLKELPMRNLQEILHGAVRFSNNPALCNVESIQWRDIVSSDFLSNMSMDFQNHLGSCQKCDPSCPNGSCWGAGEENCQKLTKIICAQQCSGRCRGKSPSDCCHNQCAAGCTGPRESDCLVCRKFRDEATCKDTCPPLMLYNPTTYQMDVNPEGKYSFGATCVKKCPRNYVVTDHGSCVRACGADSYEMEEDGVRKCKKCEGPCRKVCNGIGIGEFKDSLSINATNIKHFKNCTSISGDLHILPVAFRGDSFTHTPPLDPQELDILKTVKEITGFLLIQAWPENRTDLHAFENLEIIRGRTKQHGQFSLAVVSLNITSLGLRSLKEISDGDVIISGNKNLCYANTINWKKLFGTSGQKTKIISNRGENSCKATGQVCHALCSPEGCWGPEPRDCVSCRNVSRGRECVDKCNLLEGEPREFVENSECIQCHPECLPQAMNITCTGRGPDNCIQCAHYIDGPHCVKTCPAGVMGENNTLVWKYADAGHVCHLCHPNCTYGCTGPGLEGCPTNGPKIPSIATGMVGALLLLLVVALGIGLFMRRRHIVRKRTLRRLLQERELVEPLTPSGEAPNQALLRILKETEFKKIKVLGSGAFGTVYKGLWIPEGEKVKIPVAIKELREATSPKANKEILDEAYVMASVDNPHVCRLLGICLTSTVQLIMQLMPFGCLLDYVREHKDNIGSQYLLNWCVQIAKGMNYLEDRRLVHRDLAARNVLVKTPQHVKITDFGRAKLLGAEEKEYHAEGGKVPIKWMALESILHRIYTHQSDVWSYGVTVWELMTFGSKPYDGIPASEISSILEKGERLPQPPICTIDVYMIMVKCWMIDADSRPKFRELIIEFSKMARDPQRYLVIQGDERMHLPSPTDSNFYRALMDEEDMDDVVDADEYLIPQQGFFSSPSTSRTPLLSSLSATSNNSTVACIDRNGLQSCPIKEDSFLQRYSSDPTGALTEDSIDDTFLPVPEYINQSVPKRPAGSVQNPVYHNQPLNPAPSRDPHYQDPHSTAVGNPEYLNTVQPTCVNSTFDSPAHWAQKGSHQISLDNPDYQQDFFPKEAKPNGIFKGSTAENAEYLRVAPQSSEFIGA

In the case of `CCc1cc(Nc2ncc(Br)c(Nc3ccc4nccnc4c3P(C)(C)=O)n2)c(OC)cc1N1CCC(N2CCN(CCc3ccc(C4CCC(=O)NC4=O)c(OC)c3)CC2)CC1` (centres unmarked) [Example 2, 3-(4-(2-(4-(1-(4-((5-bromo-4-((5-(dimethylphosphoryl)quinoxalin-6-yl)amino)pyrimidin-2-yl)amino)-2-ethyl-5-methoxyphenyl)piperidin-4-yl)piperazin-1-yl)ethyl)-2-methoxyphenyl)piperidine-2,6-dione], the DC50 in experiment [1] was 3720 nM; on EGFR (HCC827 cells), 18 nM. Moreover, the Dmax in experiment [1] was 53.6%; on EGFR (HCC827 cells), 78.5%.
`CCc1cc(Nc2ncc(Br)c(Nc3ccc4nccnc4c3P(C)(C)=O)n2)c(OC)cc1N1CCC(N2CCN(CCc3ccc(C4CCC(=O)NC4=O)c(C)c3)CC2)CC1` (centres unmarked) [Example 3, 3-(4-(2-(4-(1-(4-((5-bromo-4-((5-(dimethylphosphoryl)quinoxalin-6-yl)amino)pyrimidin-2-yl)amino)-2-ethyl-5-methoxyphenyl)piperidin-4-yl)piperazin-1-yl)ethyl)-2-methylphenyl)piperidine-2,6-dione]: in experiment [1], the DC50 was over 10000 nM and the Dmax came to 45.1%. For the same molecule, on EGFR (HCC827 cells), the DC50 stood at 14.3 nM and the Dmax was found to be 72.3%.
The matching figures for `CCc1cc(Nc2ncc(Br)c(Nc3ccc4nccnc4c3P(C)(C)=O)n2)c(OC)cc1N1CCC(N2CCN(CCc3ccc(C4CCC(=O)NC4=O)c(Cl)c3)CC2)CC1` (centres unmarked) [Example 4, 3-(4-(2-(4-(1-(4-((5-bromo-4-((5-(dimethylphosphoryl)quinoxalin-6-yl)amino)pyrimidin-2-yl)amino)-2-ethyl-5-methoxyphenyl)piperidin-4-yl)piperazin-1-yl)ethyl)-2-chlorophenyl)piperidine-2,6-dione]: 7.44 nM, 75.4%, 11.1 nM and 83.6%.
In experiment [1], `CCc1cc(Nc2ncc(Br)c(Nc3ccc4nccnc4c3P(C)(C)=O)n2)c(OC)cc1N1CCC(N2CCN(CCc3ccc(C4CCC(=O)NC4=O)cn3)CC2)CC1` (centres unmarked) [Example 13, 3-(6-(2-(4-(1-(4-((5-bromo-4-((5-(dimethylphosphoryl)quinoxalin-6-yl)amino)pyrimidin-2-yl)amino)-2-ethyl-5-methoxyphenyl)piperidin-4-yl)piperazin-1-yl)ethyl)pyridin-3-yl)piperidine-2,6-dione] displayed a DC50 of over 10000 nM and a Dmax of 42.8%. At EGFR (HCC827 cells), this molecule had a DC50 of 9.48 nM and a Dmax of 78.9%.
Taken in the same sequence, the figures for `CCc1cc(Nc2ncc(Br)c(Nc3ccc4nccnc4c3P(C)(C)=O)n2)c(OC)cc1N1CCC(N2CCN(CCOc3ccc(C4CCC(=O)NC4=O)cc3)CC2)CC1` (centres unmarked) [Example 17, 3-(4-(2-(4-(1-(4-((5-bromo-4-((5-(dimethylphosphoryl)quinoxalin-6-yl)amino)pyrimidin-2-yl)amino)-2-ethyl-5-methoxyphenyl)piperidin-4-yl)piperazin-1-yl)ethoxy)phenyl)piperidine-2,6-dione formate] were over 10000 nM, 6.77%, 25.4 nM and 73.3%.
Taken in the same sequence, the figures for `CCc1cc(Nc2ncc(Br)c(Nc3ccc4nccnc4c3P(C)(C)=O)n2)c(OC)cc1N1CCC(N2CCN(CC3CCN(c4ccc(C5CCC(=O)NC5=O)cc4)CC3)CC2)CC1` (centres unmarked) [Example 22, 3-(4-(4-((4-(1-(4-((5-bromo-4-((5-(dimethylphosphoryl)quinoxalin-6-yl)amino)pyrimidin-2-yl)amino)-2-ethyl-5-methoxyphenyl)piperidin-4-yl)piperazin-1-yl)methyl)piperidin-1-yl)phenyl)piperidine-2,6-dione] were over 10000 nM, 41.7%, 6.26 nM and 67.5%.
Taken in the same sequence, the figures for `CCc1cc(Nc2ncc(Br)c(Nc3ccc4nccnc4c3P(C)(C)=O)n2)c(OC)cc1N1CCC(N2CCN(C(=O)CC3CCN(c4ccc(C5CCC(=O)NC5=O)cc4)CC3)CC2)CC1` (centres unmarked) [Example 24, 3-(4-(4-(2-(4-(1-(4-((5-bromo-4-((5-(dimethylphosphoryl)quinoxalin-6-yl)amino)pyrimidin-2-yl)amino)-2-ethyl-5-methoxyphenyl)piperidin-4-yl)piperazin-1-yl)-2-oxoethyl)piperidin-1-yl)phenyl)piperidine-2,6-dione] were 5.72 nM, 65.5%, 6.59 nM and 74.7%.
On to `CCc1cc(Nc2ncc(Br)c(Nc3ccc4nccnc4c3P(C)(C)=O)n2)c(OC)cc1N1CCC(N2CCN(CCC3CCN(c4ccc(N5CCC(=O)NC5=O)cc4)CC3)CC2)CC1` [Example 55, 1-(4-(4-(2-(4-(1-(4-((5-bromo-4-((5-(dimethylphosphoryl)quinoxalin-6-yl)amino)pyrimidin-2-yl)amino)-2-ethyl-5-methoxyphenyl)piperidin-4-yl)piperazin-1-yl)ethyl)piperidin-1-yl)phenyl)dihydropyrimidine-2,4(1H,3H)-dione], for which, in experiment [1], the DC50 was over 10000 nM and the Dmax amounted to 18.7%. Also, at EGFR (HCC827 cells), it took 313 nM to reach half-maximal degradation (DC50) and the Dmax is 56.2%.
In experiment [1], `CCc1cc(Nc2ncc(Br)c(Nc3ccc4nccnc4c3P(C)(C)=O)n2)c(OC)cc1N1CCC(N2CCN(C(=O)CCC3CN(c4ccc5c(c4)C(=O)N(C4CCC(=O)NC4=O)C5=O)C3)CC2)CC1` (centres unmarked) [Example 57, 5-(3-(3-(4-(1-(4-((5-bromo-4-((5-(dimethylphosphoryl)quinoxalin-6-yl)amino)pyrimidin-2-yl)amino)-2-ethyl-5-methoxyphenyl)piperidin-4-yl)piperazin-1-yl)-3-oxopropyl)azetidin-1-yl)-2-(2,6-dioxopiperidin-3-yl)isoindoline-1,3-dione] gave a DC50 of 5.31 nM and a Dmax of 77.4%. At EGFR (HCC827 cells), this molecule came in with a DC50 of 4.8 nM and a maximal degradation (Dmax) of 76.1%.
Taken in the same sequence, the figures for `CCc1cc(Nc2ncc(Br)c(Nc3ccc4nccnc4c3P(C)(C)=O)n2)c(OC)cc1N1CCC(N2CCN(CCC3CN(c4ccc5c(c4)C(=O)N(C4CCC(=O)NC4=O)C5=O)C3)CC2)CC1` (centres unmarked) [Example 58, 5-(3-(2-(4-(1-(4-((5-bromo-4-((5-(dimethylphosphoryl)quinoxalin-6-yl)amino)pyrimidin-2-yl)amino)-2-ethyl-5-methoxyphenyl)piperidin-4-yl)piperazin-1-yl)ethyl)azetidin-1-yl)-2-(2,6-dioxopiperidin-3-yl)isoindoline-1,3-dione] were 3.9 nM, 88.5%, 5.45 nM and 78.5%.
The matching figures for `CCc1cc(Nc2ncc(Br)c(Nc3ccc4nccnc4c3P(C)(C)=O)n2)c(OC)cc1N1CCC(N2CCN(CC3CN(c4ccc5c(c4)C(=O)N(C4CCC(=O)NC4=O)C5=O)C3)CC2)CC1` (centres unmarked) [Example 59, 5-(3-((4-(1-(4-((5-bromo-4-((5-(dimethylphosphoryl)quinoxalin-6-yl)amino)pyrimidin-2-yl)amino)-2-ethyl-5-methoxyphenyl)piperidin-4-yl)piperazin-1-yl)methyl)azetidin-1-yl)-2-(2,6-dioxopiperidin-3-yl)isoindoline-1,3-dione]: 1.62 nM, 82.5%, 4.68 nM and 85.2%.

What is called DC50 is the concentration giving 50% degradation. Higher therefore signals a less potent degrader. One may read the Dmax as the greatest extent of degradation seen. Low values mean shallow degradation, high ones deep degradation.

The values above are taken from patent US20230265116A1, “DEGRADATION OF (EGFR) BY CONJUGATION OF EGFR INHIBITORS WITH E3 LIGASE LIGAND AND METHODS OF USE” (BEIGENE, LTD., priority 2020, published 2023).
